Test results published in ChEMBL document CHEMBL3045090, “Synthesis, insecticidal activity, and structure-activity relationship of trifluoromethyl-containing phthalic acid diamide structures” (2010).
In brackets after ≈: the same amount, converted by molar mass.

Legend:
Assay type in all cases: functional
Plutella xylostella [1] = assay: Insecticidal activity against third-instar larval stage of Plutella xylostella (diamondback moth) in cabbage leaves assessed as mortality at 100 ug/ml treated for 10 secs before larva infestation measured after 3 days by dipping method; conditions: 72 h
Plutella xylostella [2] = assay: Insecticidal activity against third-instar larval stage of Plutella xylostella (diamondback moth) in cabbage leaves assessed as mortality at 100 ug/ml treated for 10 secs before larva infestation measured after 2 days by dipping method; conditions: 48 h
Plutella xylostella [3] = assay: Insecticidal activity against third-instar larval stage of Plutella xylostella (diamondback moth) in cabbage leaves assessed as mortality at 10 ug/ml treated for 10 secs before larva infestation measured after 3 days by dipping method; conditions: 72 h
Plutella xylostella [4] = assay: Insecticidal activity against third-instar larval stage of Plutella xylostella (diamondback moth) in cabbage leaves assessed as mortality at 10 ug/ml treated for 10 secs before larva infestation measured after 2 days by dipping method; conditions: 48 h
Plutella xylostella [5] = assay: Insecticidal activity against third-instar larval stage of Plutella xylostella (diamondback moth) in cabbage leaves assessed as mortality at 5 ug/ml treated for 10 secs before larva infestation measured for 3 days by dipping method; conditions: 72 h
Plutella xylostella [6] = assay: Insecticidal activity against third-instar larval stage of Plutella xylostella (diamondback moth) in cabbage leaves assessed as mortality at 0.1 ug/ml treated for 10 secs before larva infestation measured for 3 days by dipping method; conditions: 72 h
Plutella xylostella [7] = assay: Insecticidal activity against third-instar larval stage of Plutella xylostella (diamondback moth) in cabbage leaves assessed as mortality at 1 ug/ml treated for 10 secs before larva infestation measured for 3 days by dipping method; conditions: 72 h
Plutella xylostella [8] = assay: Insecticidal activity against third-instar larval stage of Plutella xylostella (diamondback moth) in cabbage leaves assessed as mortality at 0.5 ug/ml treated for 10 secs before larva infestation measured for 3 days by dipping method; conditions: 72 h
Plutella xylostella [9] = assay: Insecticidal activity against third-instar larval stage of Plutella xylostella (diamondback moth) in cabbage leaves assessed as mortality treated for 10 secs before larva infestation measured for 3 days by dipping method; conditions: 72 h

SMILES | mortality at 100 µg/mL (Plutella xylostella [1]) | mortality at 100 µg/mL (Plutella xylostella [2]) | mortality at 10 µg/mL (Plutella xylostella [4]) | also measured
CC(C)(CS(C)(=O)=O)NC(=O)c1c(I)cccc1C(=O)Nc1cc(C(F)(F)F)cc(C(F)(F)F)c1 | 90% | 40% |  | 
COCC(C)(C)NC(=O)c1c(I)cccc1C(=O)Nc1cc(C(F)(F)F)ccc1OC | 0% | 0% |  | 
COCC(C)(C)NC(=O)c1c(I)cccc1C(=O)Nc1ccc(Cl)c(C(F)(F)F)c1 | 52% | 5% |  | 
COCC(C)(C)NC(=O)c1c(I)cccc1C(=O)Nc1cc(C(F)(F)F)cc(C(F)(F)F)c1 | 0% | 0% |  | 
CC(C)(CS(C)(=O)=O)NC(=O)c1c(I)cccc1C(=O)Nc1ccc(C#N)c(C(F)(F)F)c1 | 100% | 57% | 0% | mortality at 10 µg/mL (Plutella xylostella [3]): 50%
COc1cc(NC(=O)c2cccc(I)c2C(=O)NC(C)(C)CS(C)(=O)=O)cc(C(F)(F)F)c1 | 0% | 0% |  | 
CSCC(C)(C)NC(=O)c1c(I)cccc1C(=O)Nc1cc(F)cc(C(F)(F)F)c1 | 100% | 90% | 43% | mortality at 10 µg/mL (Plutella xylostella [3]): 100%
COc1ccc(C(F)(F)F)cc1NC(=O)c1cccc(I)c1C(=O)NC(C)(C)C | 0% | 0% |  | 
COc1ccc(NC(=O)c2cccc(I)c2C(=O)NC(C)(C)CS(C)(=O)=O)cc1C(F)(F)F | 0% | 0% |  | 
COc1ccc(NC(=O)c2cccc(I)c2C(=O)NC(C)(C)C)cc1C(F)(F)F | 5% | 0% |  | 
CC(C)(C)NC(=O)c1c(I)cccc1C(=O)Nc1cccc(C(F)(F)F)c1 |  | 100% | 50% | mortality at 10 µg/mL (Plutella xylostella [3]): 100%
COc1ccc(NC(=O)c2cccc(I)c2C(=O)NC(C)(C)CSC)cc1C(F)(F)F | 50% | 5% |  | 
CC(C)(CS(C)(=O)=O)NC(=O)c1c(I)cccc1C(=O)Nc1cc(C(F)(F)F)ccc1F | 67% | 43% |  | 
COCC(C)(C)NC(=O)c1c(I)cccc1C(=O)Nc1cccc(C(F)(F)F)c1 | 100% | 60% | 0% | mortality at 10 µg/mL (Plutella xylostella [3]): 13%
CC(C)(CS(C)(=O)=O)NC(=O)c1c(I)cccc1C(=O)Nc1cccc(C(F)(F)F)c1 |  | 100% | 95% | mortality at 10 µg/mL (Plutella xylostella [3]): 100%
COCC(C)(C)NC(=O)c1c(I)cccc1C(=O)Nc1cc(F)cc(C(F)(F)F)c1 | 19% | 10% |  | 
CC(C)(C)NC(=O)c1c(I)cccc1C(=O)Nc1cc(F)cc(C(F)(F)F)c1 | 76% | 14% |  | 
CSCC(C)(C)NC(=O)c1c(I)cccc1C(=O)Nc1cc(C(F)(F)F)cc(C(F)(F)F)c1 | 85% | 71% |  | 

SMILES | mortality at 100 µg/mL (Plutella xylostella [1]) | mortality at 100 µg/mL (Plutella xylostella [2]) | mortality at 10 µg/mL (Plutella xylostella [4]) | also measured
COCC(C)(C)NC(=O)c1c(I)cccc1C(=O)Nc1ccc(C#N)c(C(F)(F)F)c1 | 0% | 0% |  | 
CSCC(C)(C)NC(=O)c1c(I)cccc1C(=O)Nc1ccc(F)c(C(F)(F)F)c1 |  | 100% | 100% | mortality at 5 µg/mL (Plutella xylostella [5]): 100%; mortality at 0.1 µg/mL (Plutella xylostella [6]): 0%; mortality at 1 µg/mL (Plutella xylostella [7]): 33%; mortality at 0.5 µg/mL (Plutella xylostella [8]): 0%
CSCC(C)(C)NC(=O)c1c(I)cccc1C(=O)Nc1cccc(C(F)(F)F)c1 |  | 100% | 90% | mortality at 10 µg/mL (Plutella xylostella [3]): 100%
Cc1cc(C(F)(C(F)(F)F)C(F)(F)F)ccc1NC(=O)c1cccc(I)c1C(=O)NC(C)(C)CS(C)(=O)=O [FLUBENDIAMIDE] |  | 100% | 67% | mortality at 5 µg/mL (Plutella xylostella [5]): 100%; mortality at 0.1 µg/mL (Plutella xylostella [6]): 20%; mortality at 1 µg/mL (Plutella xylostella [7]): 95%; mortality at 0.5 µg/mL (Plutella xylostella [8]): 90%; mortality at 10 µg/mL (Plutella xylostella [3]): 100%; LC50 (Plutella xylostella [9]): 0.15 µg/mL (≈ 0.22 µM)
CC(C)(C)NC(=O)c1c(I)cccc1C(=O)Nc1ccc(Cl)c(C(F)(F)F)c1 | 100% | 85% | 20% | mortality at 10 µg/mL (Plutella xylostella [3]): 70%
COc1cc(NC(=O)c2cccc(I)c2C(=O)NC(C)(C)C)cc(C(F)(F)F)c1 | 10% | 10% |  | 
CC(C)(CS(C)(=O)=O)NC(=O)c1c(I)cccc1C(=O)Nc1cc(F)cc(C(F)(F)F)c1 |  | 100% | 57% | mortality at 10 µg/mL (Plutella xylostella [3]): 91%
COc1ccc(C(F)(F)F)cc1NC(=O)c1cccc(I)c1C(=O)NC(C)(C)CSC | 5% | 5% |  | 
CSCC(C)(C)NC(=O)c1c(I)cccc1C(=O)Nc1cc(C(F)(F)F)ccc1F | 65% | 41% |  | 
COc1ccc(C(F)(F)F)cc1NC(=O)c1cccc(I)c1C(=O)NC(C)(C)CS(C)(=O)=O | 0% | 0% |  | 
CC(C)(C)NC(=O)c1c(I)cccc1C(=O)Nc1cc(C(F)(F)F)ccc1F | 62% | 57% |  | 
CSCC(C)(C)NC(=O)c1c(I)cccc1C(=O)Nc1ccc(C#N)c(C(F)(F)F)c1 |  | 100% | 6% | mortality at 10 µg/mL (Plutella xylostella [3]): 42%
COc1cc(NC(=O)c2cccc(I)c2C(=O)NC(C)(C)CSC)cc(C(F)(F)F)c1 | 5% | 0% |  | 
COCC(C)(C)NC(=O)c1c(I)cccc1C(=O)Nc1cc(C(F)(F)F)ccc1F | 12% | 6% |  | 
CSCC(C)(C)NC(=O)c1c(I)cccc1C(=O)Nc1ccc(Cl)c(C(F)(F)F)c1 |  | 100% | 100% | mortality at 5 µg/mL (Plutella xylostella [5]): 100%; mortality at 0.1 µg/mL (Plutella xylostella [6]): 0%; mortality at 1 µg/mL (Plutella xylostella [7]): 62%; mortality at 0.5 µg/mL (Plutella xylostella [8]): 57%; LC50 (Plutella xylostella [9]): 0.42 µg/mL (≈ 0.736 µM)
CC(C)(CS(C)(=O)=O)NC(=O)c1c(I)cccc1C(=O)Nc1ccc(Cl)c(C(F)(F)F)c1 |  | 100% | 100% | mortality at 5 µg/mL (Plutella xylostella [5]): 100%; mortality at 0.1 µg/mL (Plutella xylostella [6]): 4.8%; mortality at 1 µg/mL (Plutella xylostella [7]): 52%; mortality at 0.5 µg/mL (Plutella xylostella [8]): 29%; LC50 (Plutella xylostella [9]): 0.98 µg/mL (≈ 1.63 µM)
COCC(C)(C)NC(=O)c1c(I)cccc1C(=O)Nc1ccc(OC)c(C(F)(F)F)c1 | 0% | 0% |  | 
CC(C)(CS(C)(=O)=O)NC(=O)c1c(I)cccc1C(=O)Nc1ccc(F)c(C(F)(F)F)c1 |  | 100% | 100% | mortality at 5 µg/mL (Plutella xylostella [5]): 100%; mortality at 0.1 µg/mL (Plutella xylostella [6]): 0%; mortality at 1 µg/mL (Plutella xylostella [7]): 29%; mortality at 0.5 µg/mL (Plutella xylostella [8]): 5%
